The values below come from PubChem BioAssay (NCI).

Some test systems named below: HT29 colon; UACC-257 melanoma; TK-10 renal; MALME-3M melanoma; UO-31 renal; UACC-62 melanoma; 786-0 renal; SK-MEL-5 melanoma; OVCAR-4 ovarian.
What all share (test): DTP human tumour cell line panel, 48 h

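Results reflect a 48-hour exposure of cells in 96-well plates to compound at five concentrations. The concentration for 50% growth inhibition is given as GI50. TGI denotes the concentration required for complete inhibition of growth.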

In the case of `COC(=O)C1=C(O)c2cc3c(cc2[C@H](c2cc(OC)c(OC)c(OC)c2)C1C(=O)OC)OCO3` (stereo partly specified), the TGI – broadly, the concentration at which net growth stops – is greater than 100 µM in the test on HT29 colon; greater than 100 µM with UACC-257 melanoma; 89.5 µM in the test with TK-10 renal; 87.3 µM in the test with MALME-3M melanoma; greater than 100 µM with UO-31 renal; 99.4 µM in the test with UACC-62 melanoma. For the same compound, the TGI is greater than 100 µM in the test on 786-0 renal, greater than 100 µM with SK-MEL-5 melanoma and 83 µM in the test with OVCAR-4 ovarian.
With `Cc1ccc(Sc2ccc(C)cc2[N+](=O)[O-])c([N+](=O)[O-])c1`, the total growth inhibition concentration (TGI) in the test with HT29 colon is greater than 10 µM; in the test with UACC-257 melanoma, greater than 10 µM; in the test with TK-10 renal it was greater than 100 µM; with MALME-3M melanoma, greater than 100 µM; in the test with UO-31 renal, greater than 100 µM; with UACC-62 melanoma, greater than 100 µM. The TGI in the test with 786-0 renal, in the test on SK-MEL-5 melanoma and in the test with OVCAR-4 ovarian was greater than 100 µM in each case.
For `CC1CCC(C(C)C)C(O[C@@H]2OC(=O)C[C@@H]2Sc2ccccc2)C1` (stereo partly specified), the TGI with HT29 colon is 34.3 µM; in the test on UACC-257 melanoma it was 39.3 µM; in the test with TK-10 renal, greater than 100 µM; in the test with MALME-3M melanoma, 58.7 µM; in the test on UACC-62 melanoma, greater than 100 µM; in the test on 786-0 renal, 45.9 µM. For the same compound, the TGI in the test on SK-MEL-5 melanoma was 30.3 µM; with OVCAR-4 ovarian it was 41.9 µM.
Regarding `C=C1CCc2occ(C)c2C2C1C1=C(CC(C)C1=O)C1OC12C` (stereo unspecified), the TGI with HT29 colon, in the test on UACC-257 melanoma, in the test on TK-10 renal, with MALME-3M melanoma, with UO-31 renal and with UACC-62 melanoma was greater than 100 µM throughout. Moreover, the concentration for total growth inhibition (TGI) in the test with 786-0 renal, in the test on SK-MEL-5 melanoma and in the test on OVCAR-4 ovarian was greater than 100 µM each time.
For `O=C1CCC2(c3ccccc3)Nc3ncccc3N12` (stereo unspecified), the concentration for total growth inhibition (TGI) with HT29 colon, in the test with UACC-257 melanoma, in the test with TK-10 renal, in the test with MALME-3M melanoma, in the test with UO-31 renal and in the test with UACC-62 melanoma was greater than 100 µM throughout. The total growth inhibition concentration (TGI) in the test on 786-0 renal, in the test with SK-MEL-5 melanoma and in the test on OVCAR-4 ovarian was greater than 100 µM each time.
As to `CC#CC1C(OC(=O)c2ccccc2)CCCC1(CI)N=[N+]=[N-]` (stereo unspecified), the TGI with HT29 colon, with UACC-257 melanoma, in the test with TK-10 renal, in the test on MALME-3M melanoma, in the test with UO-31 renal and with UACC-62 melanoma was greater than 100 µM each time. In addition, the concentration for total growth inhibition (TGI) in the test on 786-0 renal was greater than 100 µM; in the test on SK-MEL-5 melanoma it was 42.2 µM; in the test on OVCAR-4 ovarian, greater than 100 µM.
As to `CS/C(C)=N/OC(=O)NCCCCNc1ccc(N=[N+]=[N-])cc1`, the TGI is greater than 100 µM with HT29 colon; greater than 100 µM in the test with UACC-257 melanoma; greater than 100 µM with TK-10 renal; greater than 100 µM in the test on MALME-3M melanoma; 82.4 µM in the test with UO-31 renal; 89.4 µM in the test with UACC-62 melanoma. Further, the TGI in the test on 786-0 renal was greater than 100 µM; in the test with SK-MEL-5 melanoma, 38.6 µM; in the test on OVCAR-4 ovarian, greater than 100 µM.
As to `C=C1CCC2[C@@H](CCC3[C@]2(C)CCC[C@]3(C)C(=O)OC)C1CCO` (stereo partly specified), the TGI in the test with HT29 colon was 17.8 µM; in the test with UACC-257 melanoma it was 18.6 µM; in the test with TK-10 renal it was 34.1 µM; in the test on MALME-3M melanoma, 35.8 µM; in the test on UO-31 renal, 31.7 µM; in the test on UACC-62 melanoma, 27.5 µM. The concentration for total growth inhibition (TGI) in the test with 786-0 renal worked out at 49.2 µM; in the test on SK-MEL-5 melanoma, 17.5 µM; in the test with OVCAR-4 ovarian it was 26.6 µM.
On to `N.N.NCCCCCCN.O=C([O-])CC(=O)[O-].O=C([O-])CC(=O)[O-].[Pt+4].[Pt+4]`, for which the GI50 (as a rule, the concentration that inhibits growth by half) in the test on HT29 colon was 62.5 µM; in the test on UACC-257 melanoma, greater than 100 µM; with TK-10 renal, greater than 100 µM; in the test with MALME-3M melanoma it was greater than 100 µM; in the test with UO-31 renal it was greater than 100 µM; with UACC-62 melanoma it was 10.5 µM. Also, the GI50 in the test with 786-0 renal was 65.7 µM; with SK-MEL-5 melanoma it was greater than 100 µM; in the test on OVCAR-4 ovarian it was greater than 78.5 µM. The TGI in the test with HT29 colon, in the test with UACC-257 melanoma, with TK-10 renal, in the test on MALME-3M melanoma, in the test with UO-31 renal and with UACC-62 melanoma was greater than 100 µM in each case. The TGI with 786-0 renal, in the test with SK-MEL-5 melanoma and with OVCAR-4 ovarian was greater than 100 µM throughout.
With `CC(=O)NC1CC2Oc3ccc(C)cc3C(C)(O2)C1O` (stereo unspecified), the TGI with HT29 colon, with UACC-257 melanoma, in the test with TK-10 renal, in the test with MALME-3M melanoma, in the test with UO-31 renal and in the test on UACC-62 melanoma was greater than 100 µM in each case. In the test with 786-0 renal, this compound registered a TGI greater than 100 µM.
For the compound `COC(=O)C1=C(C(=O)OC)SC(=C(N=Nc2ccccc2)c2ccccc2)S1`, the TGI with HT29 colon, with UACC-257 melanoma, in the test with TK-10 renal, in the test on MALME-3M melanoma, in the test on UO-31 renal and in the test with UACC-62 melanoma was greater than 100 µM each time. Also, the concentration for total growth inhibition (TGI) with 786-0 renal, in the test on SK-MEL-5 melanoma and in the test with OVCAR-4 ovarian was greater than 100 µM throughout.
For `C[C@@H](NC1CCC[C@H]1O)c1ccccc1` (stereo partly specified), the TGI in the test with HT29 colon, with UACC-257 melanoma, with TK-10 renal, in the test with MALME-3M melanoma, in the test with UO-31 renal and with UACC-62 melanoma was greater than 100 µM throughout. For the same compound, the total growth inhibition concentration (TGI) in the test with 786-0 renal, with SK-MEL-5 melanoma and with OVCAR-4 ovarian was greater than 100 µM in each case.
Take `C/C=C/C=C/CCCCCCCCCCCCCC1(OC)C=CC(CC(=O)OC)OO1` (stereo unspecified): the GI50 in the test with HT29 colon was 1.82 µM; with TK-10 renal, 2.26 µM; with 786-0 renal it was 1.75 µM; in the test on OVCAR-4 ovarian, 1.15 µM. Also, the TGI in the test with HT29 colon turned out to be 3.43 µM; with UACC-257 melanoma, 35.4 µM; in the test on TK-10 renal it was 4.81 µM; in the test on MALME-3M melanoma, 50.8 µM; with UO-31 renal, 7.94 µM; with UACC-62 melanoma, 28 µM. Also, the TGI with 786-0 renal turned out to be 3.51 µM; in the test on SK-MEL-5 melanoma, 22.6 µM; in the test with OVCAR-4 ovarian, 2.48 µM.
In the case of `CCN(CC)CC(C(=O)Nc1c(C)cccc1C)/C(C)=N\NC(=O)c1ccncc1` (stereo unspecified), the TGI with HT29 colon, in the test with UACC-257 melanoma, with TK-10 renal, in the test with MALME-3M melanoma, with UO-31 renal and with 786-0 renal was greater than 100 µM throughout. Besides, the TGI with SK-MEL-5 melanoma and with OVCAR-4 ovarian was greater than 100 µM throughout.
Take `C1CCOC2(CCC3(CC2)OCCCCO3)OC1`: the TGI with UACC-257 melanoma, in the test with TK-10 renal, in the test on MALME-3M melanoma, in the test on UO-31 renal, with UACC-62 melanoma and in the test with 786-0 renal was greater than 100 µM throughout. The TGI in the test on SK-MEL-5 melanoma and with OVCAR-4 ovarian was greater than 100 µM in each case.
In the case of `C=CC1C(OC2OC(CO)C(O)C(O)C2O)OC=C(C(=O)OC)C1CC=O` (stereo unspecified), the TGI in the test with MALME-3M melanoma, in the test on UO-31 renal, with UACC-62 melanoma, with 786-0 renal, in the test on SK-MEL-5 melanoma and with OVCAR-4 ovarian was greater than 100 µM each time.
In the case of `CC(C)C12C=CC(C)(CC1)n1c(=O)c3cc4ccccc4cc3c(=O)n12` (stereo unspecified), the TGI in the test on HT29 colon was greater than 100 µM; in the test on UACC-257 melanoma, greater than 100 µM; in the test on TK-10 renal, 94 µM; in the test with MALME-3M melanoma, greater than 100 µM; in the test with UO-31 renal it was 96.6 µM; in the test with 786-0 renal it was greater than 100 µM. In addition, the concentration for total growth inhibition (TGI) in the test with SK-MEL-5 melanoma and in the test on OVCAR-4 ovarian was greater than 100 µM in each case.
Regarding `O=C(CCc1cc(-c2ccccc2)nc(=S)[nH]1)Nc1ccccc1[N+](=O)[O-]`, the TGI with HT29 colon, in the test on UACC-257 melanoma, with TK-10 renal, in the test on MALME-3M melanoma, in the test on UO-31 renal and in the test on UACC-62 melanoma was greater than 100 µM each time. Moreover, the TGI in the test with 786-0 renal and in the test on SK-MEL-5 melanoma was greater than 100 µM each time.
For the compound `N#Cc1cc([N+](=O)[O-])ccc1NC(=O)/C(=N/N)C(C(=O)c1ccc(Cl)c(Cl)c1)C1OC(=O)c2ccccc21` (stereo unspecified), the total growth inhibition concentration (TGI) in the test on HT29 colon, in the test on UACC-257 melanoma, with MALME-3M melanoma, in the test on UO-31 renal, with UACC-62 melanoma and with 786-0 renal was greater than 100 µM in each case. Further, the total growth inhibition concentration (TGI) in the test with SK-MEL-5 melanoma and in the test with OVCAR-4 ovarian was greater than 100 µM each time.
Take `CCC1CCc2c(OC)ccc(OCC(=O)O)c2C1=O` (stereo unspecified): the total growth inhibition concentration (TGI) in the test with UACC-257 melanoma, in the test on TK-10 renal, in the test with MALME-3M melanoma, in the test on UO-31 renal, with UACC-62 melanoma and with 786-0 renal was greater than 100 µM in each case. For the same compound, the TGI in the test on SK-MEL-5 melanoma and with OVCAR-4 ovarian was greater than 100 µM in each case.
Take `CCCC(Sc1ccccc1)P(=O)(c1ccccc1)c1ccccc1` (stereo unspecified): the TGI is greater than 100 µM in the test with UACC-257 melanoma; greater than 100 µM in the test with TK-10 renal; greater than 100 µM in the test with UO-31 renal; 37 µM with UACC-62 melanoma; greater than 100 µM in the test with 786-0 renal; 87.2 µM with SK-MEL-5 melanoma. The TGI in the test on OVCAR-4 ovarian was greater than 100 µM.
Regarding `COc1cc(/C=C/C(=O)c2sc(NNC(C)=O)nc2C)ccc1O`, the TGI in the test with HT29 colon, in the test on UACC-257 melanoma, in the test with TK-10 renal, in the test with MALME-3M melanoma, in the test on UO-31 renal and with UACC-62 melanoma was greater than 100 µM each time. Besides, the TGI in the test with 786-0 renal and in the test on SK-MEL-5 melanoma was greater than 100 µM throughout.
